Assays:
[1] = biological target: IKKε (Homo sapiens (Human), UniProt Q14164); test: TR-FRET kinase assay, IKKε; type: biochemical; conditions: full length recombinant IKKε 0.3 nM, 2x Km ATP, 1 μM peptide, 240 min at 25° C.; geometric mean of minimum four determinations
Description: Biological Assay for TBK1 and IKKs:

[2] = biological target: TBK1 (Homo sapiens (Human), UniProt Q9UHD2); test: TR-FRET kinase assay, TBK1; conditions: read-out: TBK1-IC50; full length recombinant TBK1 2.5 nM, 2x Km ATP, 1 μM peptide, 240 min at 25° C.; geometric mean of minimum four determinations
Sequence of TBK1 (Q9UHD2 whole entry): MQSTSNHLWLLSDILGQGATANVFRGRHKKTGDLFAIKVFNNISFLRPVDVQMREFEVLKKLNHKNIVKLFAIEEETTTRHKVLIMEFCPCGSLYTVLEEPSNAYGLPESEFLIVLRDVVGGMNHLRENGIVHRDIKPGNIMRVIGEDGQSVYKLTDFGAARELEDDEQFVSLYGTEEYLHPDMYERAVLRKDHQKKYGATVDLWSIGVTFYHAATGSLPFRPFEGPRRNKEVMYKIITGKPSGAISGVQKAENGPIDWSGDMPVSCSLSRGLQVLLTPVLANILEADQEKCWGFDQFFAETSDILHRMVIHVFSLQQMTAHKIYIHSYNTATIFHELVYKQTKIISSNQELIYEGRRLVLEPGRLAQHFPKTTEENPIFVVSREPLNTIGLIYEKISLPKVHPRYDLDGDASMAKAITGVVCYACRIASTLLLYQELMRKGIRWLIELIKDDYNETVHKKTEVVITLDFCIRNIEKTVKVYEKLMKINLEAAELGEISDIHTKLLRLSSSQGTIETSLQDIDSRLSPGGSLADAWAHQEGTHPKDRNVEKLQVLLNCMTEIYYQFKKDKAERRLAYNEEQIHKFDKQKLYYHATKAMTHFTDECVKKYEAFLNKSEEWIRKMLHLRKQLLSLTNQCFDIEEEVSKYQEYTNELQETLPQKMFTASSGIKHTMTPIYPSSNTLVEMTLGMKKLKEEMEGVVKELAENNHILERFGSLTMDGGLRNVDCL

Sequence of IKKε (Q14164 whole entry): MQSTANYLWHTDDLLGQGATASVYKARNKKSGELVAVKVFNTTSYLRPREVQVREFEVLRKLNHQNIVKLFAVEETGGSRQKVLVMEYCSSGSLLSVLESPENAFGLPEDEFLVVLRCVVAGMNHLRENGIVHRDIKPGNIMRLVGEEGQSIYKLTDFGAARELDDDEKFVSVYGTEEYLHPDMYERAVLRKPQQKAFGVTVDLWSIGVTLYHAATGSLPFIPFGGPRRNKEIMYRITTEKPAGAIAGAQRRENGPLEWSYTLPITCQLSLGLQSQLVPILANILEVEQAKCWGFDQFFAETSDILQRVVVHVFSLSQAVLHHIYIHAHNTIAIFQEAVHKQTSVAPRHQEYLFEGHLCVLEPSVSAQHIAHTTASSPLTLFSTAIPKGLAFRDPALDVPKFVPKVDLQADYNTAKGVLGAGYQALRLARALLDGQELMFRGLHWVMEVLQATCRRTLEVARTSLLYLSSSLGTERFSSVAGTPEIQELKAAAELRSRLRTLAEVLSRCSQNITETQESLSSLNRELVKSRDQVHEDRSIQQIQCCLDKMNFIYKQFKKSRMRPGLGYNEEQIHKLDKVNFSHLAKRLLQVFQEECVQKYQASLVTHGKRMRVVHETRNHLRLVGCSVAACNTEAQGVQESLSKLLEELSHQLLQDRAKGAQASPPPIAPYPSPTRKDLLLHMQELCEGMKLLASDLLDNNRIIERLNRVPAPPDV

Row | IC50 [1] | IC50 [2] | SMILES
1 | 15.8 nM | 2.02 nM | N#Cc1cc(-c2ccnc3[nH]c(-c4ccc(N5CCN(C(=O)CO)CC5)cc4)cc23)ccc1OC1CCOCC1 [Example 56, 5-(2-(4-(4-(2-hydroxyacetyl)piperazin-1-yl)phenyl)-1H-pyrrolo[2,3-b]pyridin-4-yl)-2-((tetrahydro-2H-pyran-4-yl)oxy)benzonitrile]
2 | 2.68 nM | 1.48 nM | N#Cc1cc(-c2ncnc3[nH]c(-c4ccc(C(=O)N5CCCC5)cc4)cc23)ccc1OC1CCN(C(=O)CO)CC1 [Example 162, 2-((1-(2-Hydroxyacetyl)piperidin-4-yl)oxy)-5-(6-(4-(pyrrolidine-1-carbonyl)phenyl)-7H-pyrrolo[2,3-d]pyrimidin-4-yl)benzonitrile]
3 | 4.22 nM | 2.08 nM | N#Cc1cc(-c2ncnc3[nH]c(-c4ccc(N5CCOCC5)cc4)nc23)ccc1OC1CCN(S(N)(=O)=O)CC1 [Example 262, 4-(2-cyano-4-(8-(4-morpholinophenyl)-9H-purin-6-yl)phenoxy)piperidine-1-sulfonamide]
4 | 4.71 nM | 2.07 nM | N#Cc1cc(-c2ncnc3[nH]c(-c4ccc(N5CCOCC5)cc4)nc23)ccc1OC1CCN(C(=O)CO)CC1 [Example 205, 2-((1-(2-hydroxyacetyl)piperidin-4-yl)oxy)-5-(8-(4-morpholinophenyl)-9H-purin-6-yl)benzonitrile]
5 | 1.8 nM | 1.78 nM | N#Cc1cc(-c2ncnc3[nH]c(-c4ccc(C(=O)NC5COC5)cc4)cc23)ccc1OC1CCN(C(=O)CO)CC1 [Example 163, 4-(4-(3-Cyano-4-((1-(2-hydroxyacetyl)piperidin-4-yl)oxy)phenyl)-7H-pyrrolo[2,3-d]pyrimidin-6-yl)-N-(oxetan-3-yl)benzamide]
6 | 279 nM | 36.9 nM | CC(C)(O)c1ccc(-c2cc3c(-c4ccc(CN5CCOCC5)c(C#N)c4)ncnc3[nH]2)cc1 [Example 111, 5-(6-(4-(2-hydroxypropan-2-yl)phenyl)-7H-pyrrolo[2,3-d]pyrimidin-4-yl)-2-(morpholinomethyl)benzonitrile]
7 | 16.8 nM | 11.3 nM | CN1CCN(c2ccc(-c3nc4c(-c5ccc(OC6CCNCC6)c(C#N)c5)ncnc4[nH]3)cc2)CC1 [Example 247, 5-(8-(4-(4-methylpiperazin-1-yl)phenyl)-9H-purin-6-yl)-2-(piperidin-4-yloxy)benzonitrile]
8 | 58.7 nM | 16.2 nM | N#Cc1cc(-c2ncnc3[nH]c(-c4ccc(N5CCN(CC(F)F)CC5)cc4)cc23)ccc1OC1CCNCC1 [Example 265, 5-(6-(4-(4-(2,2-difluoroethyl)piperazin-1-yl)phenyl)-7H-pyrrolo[2,3-d]pyrimidin-4-yl)-2-(piperidin-4-yloxy)benzonitrile]
9 | 3.43 nM | 4.99 nM | N#Cc1cc(-c2ncnc3[nH]c(-c4cccc(CN5CCOCC5)c4)cc23)ccc1OC1CCN(C(=O)CO)CC1 [Example 184, 2-((1-(2-hydroxyacetyl)piperidin-4-yl)oxy)-5-(6-(3-(morpholinomethyl)phenyl)-7H-pyrrolo[2,3-d]pyrimidin-4-yl)benzonitrile]
10 | 3.15 nM | 1.42 nM | CS(=O)(=O)N1CCN(c2ccc(-c3cc4c(-c5ccc(OC6CCOCC6)c(C#N)c5)ncnc4[nH]3)cc2)CC1 [Example 215, 5-(6-(4-(4-(methylsulfonyl)piperazin-1-yl)phenyl)-7H-pyrrolo[2,3-d]pyrimidin-4-yl)-2-((tetrahydro-2H-pyran-4-yl)oxy)benzonitrile]
11 | 140 nM | 31.1 nM | N#Cc1cc(-c2ncnc3[nH]c(-c4ccc(N5CCOCC5)cc4)cc23)ccc1OC1CCNCC1 [Example 218, 5-(6-(4-morpholinophenyl)-7H-pyrrolo[2,3-d]pyrimidin-4-yl)-2-(piperidin-4-yloxy)benzonitrile]
12 | 7.37 nM | 2.28 nM | COc1cc(-c2cc3c(-c4ccc(OC5CCOCC5)c(C#N)c4)ncnc3[nH]2)ccc1N1CCN(S(C)(=O)=O)CC1 [Example 135, 5-(6-(3-methoxy-4-(4-(methylsulfonyl)piperazin-1-yl)phenyl)-7H-pyrrolo[2,3-d]pyrimidin-4-yl)-2-((tetrahydro-2H-pyran-4-yl)oxy)benzonitrile]

Further lines, the molecule ahead of its results:

Row | SMILES | IC50 [1] | IC50 [2]
13 | COc1ccc(-c2ccnc3[nH]c(-c4ccc(N5CCOCC5)cc4)cc23)cc1C#N [Example 34, 2-methoxy-5-(2-(4-morpholinophenyl)-1H-pyrrolo[2,3-b]pyridin-4-yl)benzonitrile] | > 1000 nM | 89.8 nM
14 | CS(=O)(=O)c1ccc(-c2ccnc3[nH]c(-c4ccc(N5CCOCC5)cc4)cc23)cc1C#N [Example 192, 2-(methylsulfonyl)-5-(2-(4-morpholinophenyl)-1H-pyrrolo[2,3-b]pyridin-4-yl)benzonitrile] | 1000 nM | 275 nM
15 | N#Cc1cc(-c2ccnc3[nH]c(C4=CCNCC4)cc23)ccc1OC1CCOCC1 [Example 5, 2-((tetrahydro-2H-pyran-4-yl)oxy)-5-(2-(1,2,3,6-tetrahydropyridin-4-yl)-1H-pyrrolo[2,3-b]pyridin-4-yl)benzonitrile] | 39.7 nM | 29.8 nM
16 | COc1cc(C#N)cc(-c2ccnc3[nH]c(-c4ccc(N5CCOCC5)cc4)cc23)c1 [Example 33, 3-methoxy-5-(2-(4-morpholinophenyl)-1H-pyrrolo[2,3-b]pyridin-4-yl)benzonitrile] | > 1000 nM | 14.5 nM
17 | N#Cc1cc(-c2ccnc3[nH]c(C(=O)Nc4ccccc4)cc23)ccc1OC1CCOCC1 [Example 61, 4-(3-cyano-4-((tetrahydro-2H-pyran-4-yl)oxy)phenyl)-N-phenyl-1H-pyrrolo[2,3-b]pyridine-2-carboxamide] | 112 nM | 312 nM
18 | N#Cc1cc(-c2ccnc3[nH]c(-c4ccc(N5CCOCC5)cc4)cc23)ccc1N [Example 28, 2-amino-5-(2-(4-morpholinophenyl)-1H-pyrrolo[2,3-b]pyridin-4-yl)benzonitrile] | 119 nM | 11.7 nM
19 | COc1cc(-c2cc3c(-c4ccc(OC5CCOCC5)c(C#N)c4)c(F)cnc3[nH]2)ccc1N1CCOCC1 [Example 172, 5-(5-fluoro-2-(3-methoxy-4-morpholinophenyl)-1H-pyrrolo[2,3-b]pyridin-4-yl)-2-((tetrahydro-2H-pyran-4-yl)oxy)benzonitrile] | 260 nM | 30.2 nM
20 | CC(C)(C)OC(=O)n1ccc2cc(-c3cc4c(-c5ccc(OC6CCOCC6)c(C#N)c5)ccnc4[nH]3)ccc21 [Example 44, tert-butyl 5-(4-(3-cyano-4-((tetrahydro-2H-pyran-4-yl)oxy)phenyl)-1H-pyrrolo[2,3-b]pyridin-2-yl)-1H-indole-1-carboxylate] | > 1000 nM | > 1000 nM
21 | N#Cc1cc(-c2cc3c(-c4ccc(OC5CCOCC5)c(C#N)c4)ccnc3[nH]2)ccc1OC1CCOCC1 [Example 62, 5,5′-(1H-pyrrolo[2,3-b]pyridine-2,4-diyl)bis(2-((tetrahydro-2H-pyran-4-yl)oxy)benzonitrile)] | 25.3 nM | 24.1 nM
22 | N#Cc1cc(-c2cc3c(-c4ccc(N5CC(O)C5)c(C#N)c4)ncnc3[nH]2)ccc1N1CC(O)C1 [Example 230, 5,5′-(7H-pyrrolo[2,3-d]pyrimidine-4,6-diyl)bis(2-(3-hydroxyazetidin-1-yl)benzonitrile)] | 324 nM | 13.4 nM
